From US20230026611A1, “ARYL HETEROCYCLIC COMPOUNDS AS Kv1.3 POTASSIUM SHAKER CHANNEL BLOCKERS” (D. E. Shaw Research, LLC, priority 2019, published 2023)

Columns and labels:
Kv1.3 potassium channel = target: T1, Kv1.3 potassium channel (Homo sapiens, UniProt P22001); assay: Kv1.3 potassium channel blocker activity, automated whole-cell patch clamp (Patchliner) in CHO-K1 cells stably expressing Kv1.3; type: cell-based; settings: CHO-K1 cells stably expressing Kv1.3; patch clamp, current inhibition; read-out: Kv1.3 IC50
T1 construct: expressed in transfected cells
T1 sequence (P22001 whole entry): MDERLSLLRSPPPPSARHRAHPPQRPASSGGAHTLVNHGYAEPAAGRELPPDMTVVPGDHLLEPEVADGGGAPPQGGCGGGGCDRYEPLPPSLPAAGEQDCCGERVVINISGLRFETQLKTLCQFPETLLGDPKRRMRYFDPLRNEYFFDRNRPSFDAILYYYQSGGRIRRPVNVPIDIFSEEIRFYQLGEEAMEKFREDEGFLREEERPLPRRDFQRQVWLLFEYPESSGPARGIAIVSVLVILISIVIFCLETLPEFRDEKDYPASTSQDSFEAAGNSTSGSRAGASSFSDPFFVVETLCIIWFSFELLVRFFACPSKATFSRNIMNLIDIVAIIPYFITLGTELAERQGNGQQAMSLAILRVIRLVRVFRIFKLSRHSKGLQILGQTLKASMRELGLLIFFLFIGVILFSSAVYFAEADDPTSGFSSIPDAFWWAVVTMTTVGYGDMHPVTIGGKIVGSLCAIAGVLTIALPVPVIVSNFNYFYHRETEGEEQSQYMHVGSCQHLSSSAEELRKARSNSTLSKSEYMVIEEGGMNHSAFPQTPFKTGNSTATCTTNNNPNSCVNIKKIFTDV
Procedure: Example 82. Evaluation of Kv1.3 potassium channel blocker activities
This assay is used to evaluate the disclosed compounds' activities as Kv1.3 potassium channel blockers.
CHO-K1 cells stably expressing Kv1.3 were grown in DMEM containing 10% heat-inactivated FBS, 1 mM sodium pyruvate, 2 mM L-glutamine, and G418 (500 μg/ml).
All compounds were dissolved in DMSO at 30 mM.
The currents were evoked by applying 100 ms depolarizing pulses from −90 mV (holding potential) to +40 mV were applied with 0.1 Hz frequency. […] 10-second breaks were used between pulse trains (see Table A below).
Data were sampled at 10 kHz without filtering. Passive leak currents were subtracted online using a P/4 procedure (HEKA Elektronik Dr. Schulze GmbH). […] Total compound incubation time before the next pulse train was not longer than 10 seconds. Peak current inhibition was observed during compound equilibration.

hERG channel = hERG channel (Homo sapiens, UniProt Q12809); assay: hERG electrophysiology, automated whole-cell patch clamp (Patchliner) in CHO-K1 cells stably expressing hERG
hERG channel, sequence (Q12809 whole entry): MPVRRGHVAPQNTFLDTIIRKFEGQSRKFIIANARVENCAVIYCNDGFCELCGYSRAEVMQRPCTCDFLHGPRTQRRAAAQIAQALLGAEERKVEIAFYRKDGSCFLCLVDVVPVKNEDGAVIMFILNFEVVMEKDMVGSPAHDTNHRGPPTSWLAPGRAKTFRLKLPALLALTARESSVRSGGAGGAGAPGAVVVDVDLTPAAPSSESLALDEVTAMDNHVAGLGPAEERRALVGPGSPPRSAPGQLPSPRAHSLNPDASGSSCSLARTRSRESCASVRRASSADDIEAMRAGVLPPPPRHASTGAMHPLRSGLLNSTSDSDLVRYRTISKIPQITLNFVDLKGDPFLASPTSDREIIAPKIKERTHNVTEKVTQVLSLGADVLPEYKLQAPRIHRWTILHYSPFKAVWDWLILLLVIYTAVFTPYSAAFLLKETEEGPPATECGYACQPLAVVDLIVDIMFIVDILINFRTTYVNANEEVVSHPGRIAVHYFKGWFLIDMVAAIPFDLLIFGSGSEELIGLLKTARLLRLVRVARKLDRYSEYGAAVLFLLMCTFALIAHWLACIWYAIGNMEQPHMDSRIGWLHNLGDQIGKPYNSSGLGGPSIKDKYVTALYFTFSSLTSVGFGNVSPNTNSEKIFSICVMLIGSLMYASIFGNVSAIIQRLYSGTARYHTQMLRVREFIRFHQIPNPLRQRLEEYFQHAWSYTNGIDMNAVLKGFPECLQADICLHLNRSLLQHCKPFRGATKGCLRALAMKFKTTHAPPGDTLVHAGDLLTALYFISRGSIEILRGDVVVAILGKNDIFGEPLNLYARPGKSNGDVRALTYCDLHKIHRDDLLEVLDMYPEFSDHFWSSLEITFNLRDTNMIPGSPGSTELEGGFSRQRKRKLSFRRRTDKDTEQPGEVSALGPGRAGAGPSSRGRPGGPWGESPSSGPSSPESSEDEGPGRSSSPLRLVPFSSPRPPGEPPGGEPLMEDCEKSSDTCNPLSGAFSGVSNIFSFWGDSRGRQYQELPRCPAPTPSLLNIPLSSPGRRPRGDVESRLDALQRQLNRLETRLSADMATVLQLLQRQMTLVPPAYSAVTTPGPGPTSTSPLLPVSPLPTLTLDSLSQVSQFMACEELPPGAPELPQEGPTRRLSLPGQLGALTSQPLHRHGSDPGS
Procedure: Evaluation of hERG Activities
This assay is used to evaluate the disclosed compounds's inhibition activities against the hERG channel.
CHO-K1 cells stably expressing hERG were grown in Ham's F-12 Medium with glutamine containing 10% heat-inactivated FBS, 1% penicillin/streptomycin, hygromycin (100 μg/ml) and G418 (100 μg/ml). Cells were grown in culture flasks at 37° C. in a 5% CO2-humidified incubator.
The cells were bathed in an extracellular solution containing 140 mM NaCl, 4 mM KCl, 2 mM CaCl2), 1 mM MgCl2, 5 mM Glucose, 10 mM HEPES; pH adjusted to 7.4 with NaOH; 295-305 mOsm. The internal solution contained 50 mM KCl, 10 mM NaCl, 60 mM KF, 20 mM EGTA, 10 mM HEPES; pH adjusted to 7.2 with KOH; 285 mOsm. All compounds were dissolved in DMSO at 30 mM. Compound stock solutions were freshly diluted with external solution to concentrations of 30 nM, 100 nM, 300 nM, 1 μM, 3 μM, 10 μM, 30 μM and 100 μM. The highest content of DMSO (0.3%) was present in 100 μM.
The voltage protocol (see Table B) was designed to simulate voltage changes during a cardiac action potential with a 300 ms depolarization to +20 mV (analogous to the plateau phase of the cardiac action potential), a repolarization for 300 ms to −50 mV (inducing a tail current) and a final step to the holding potential of −80 mV. The pulse frequency was 0.3 Hz. Control (compound-free) and compound pulse trains for each compound concentration applied contained 70 pulses.
Whole-cell current recordings and compound application were enabled by means of an automated patch clamp platform Patchliner (Nanion). EPC 10 patch clamp amplifier (HEKA) along with Patchmaster software (HEKA Elektronik Dr. Schulze GmbH) was used for data acquisition. Data were sampled at 10 kHz without filtering. Increasing compound concentrations were applied consecutively to the same cell without washouts in between.
AUC and PEAK values were obtained with Patchmaster (HEKA Elektronik Dr. Schulze GmbH). To determine IC50 the last single pulse in the pulse train corresponding to a given compound concentration was used. Obtained AUC and PEAK values in the presence of compound were normalized to control values in the absence of compound. Using Origin (OridinLab), IC50 was derived from data fit to Hill equation: Icompound/control=(100−A)/(1+([compound]/IC50)nH)+A, where IC50 is the concentration at which current inhibition is half-maximal, [compound] is the applied compound concentration, A is the fraction of current that is not blocked and nH is the Hill coefficient.

| IC50 (Kv1.3 potassium channel) [µM] | Compound | IC50 (hERG channel) [µM] |
| --- | --- | --- |
| < 1 | NC(=O)[C@@H]1C[C@H](c2c(O)ccc(Cl)c2Cl)CCN1 (single isomer, unassigned) [Compound 73] | > 30 |
| < 1 | CC(=O)NC[C@H]1C[C@@H](c2c(O)ccc(Cl)c2Cl)CCN1 (single isomer, unassigned) [Compound 86] | > 30 |
| < 1 | CC(=O)NC[C@@H]1CC(c2c(O)ccc(Cl)c2Cl)CCN1 (single isomer, unassigned) [Compound 89] | > 30 |
| < 1 | Nc1nnc([C@@H]2C[C@H](c3c(O)ccc(Cl)c3Cl)CCN2)o1 (single isomer, unassigned) [Compound 105] | > 30 |
| < 1 | CS(=O)(=O)NC[C@@H]1C[C@H](c2c(O)ccc(Cl)c2Cl)CCN1 (single isomer, unassigned) [Compound 107] | > 30 |
| < 1 | NC(=O)C[C@@H]1C[C@H](c2c(O)ccc(Cl)c2Cl)CCN1 (single isomer, unassigned) [Compound 109] | > 30 |
| < 1 | O=C(NC1CNC1)[C@H]1CC[C@H](c2c(O)ccc(Cl)c2Cl)N1 (single isomer, unassigned) [Compound 118] | > 100 |
| < 1 | O=C(NC1CNC1)[C@@H]1CN[C@@H](c2c(O)ccc(Cl)c2Cl)C1 (single isomer, unassigned) [Compound 122] | > 100 |
| < 10 | OCC1CC(c2cc(Cl)c(Cl)cc2O)CN1 (stereo not shown) [Compound 36, 4,5-dichloro-2-(5-(hydroxymethyl)pyrrolidin-3-yl)phenol] | < 30 |
| < 1 | Oc1cc(Cl)c(Cl)cc1C1CCCNCC1 (stereo not shown) [Compound 39, 2-(azepan-4-yl)-4,5-dichlorophenol] | < 30 |
| < 1 | Oc1cc(Cl)c(Cl)cc1C1CCNC(C2CC2)C1 (stereo not shown) [Compound 43, 4,5-dichloro-2-(2-cyclopropylpiperidin-4-yl)phenol] | < 30 |
| < 1 | NC(=O)N1CCC(c2c(O)cc(Cl)c(Cl)c2Cl)CC1 [Compound 60, 4-(2,3,4-trichloro-6-hydroxyphenyl)piperidine-1-carboxamide] | < 30 |
| < 1 | NC(=O)C1CC(c2c(O)cc(Cl)c(Cl)c2Cl)CCN1 (stereo not shown) [Compound 61, 4-(2,3,4-trichloro-6-hydroxyphenyl)piperidine-2-carboxamide] | < 30 |
| < 1 | CNC(=O)C1CC(c2c(O)ccc(Cl)c2Cl)CCN1 (stereo not shown) [Compound 72, 4-(2,3-dichloro-6-hydroxyphenyl)-N-methylpiperidine-2-carboxamide] | > 30 |
| < 1 | CC(=O)NCC1CC(c2c(O)ccc(Cl)c2Cl)CCN1 (stereo not shown) [Compound 79, N-[[4-(2,3-dichloro-6-hydroxyphenyl)piperidin-2-yl]methyl]acetamide] | > 30 |
| < 1 | O=C([C@H]1CCNC1)N1CCC(c2c(O)cc(Cl)c(Cl)c2Cl)CC1 [Compound 91, 3,4,5-trichloro-2-[1-[(3S)-pyrrolidine-3-carbonyl]piperidin-4-yl]phenol] | < 30 |

More lines, now with the values behind:

| Compound | IC50 (Kv1.3 potassium channel) [µM] | IC50 (hERG channel) [µM] |
| --- | --- | --- |
| O=C([C@H](O)CO)N1CCC(c2c(O)ccc(Cl)c2Cl)CC1 [Compound 2, (2R)-1-[4-(2,3-dichloro-6-hydroxyphenyl)piperidin-1-yl]-2,3-dihydroxypropan-1-one] | < 1 | > 30 |
| Oc1cc(Cl)c(Cl)cc1C1CCNCC1 [Compound 3, 4,5-dichloro-2-(piperidin-4-yl)phenol] | < 1 | < 30 |
| CN1CCC(c2cc(Cl)c(Cl)cc2O)CC1 [Compound 4, 4,5-dichloro-2-(1-methylpiperidin-4-yl)phenol] | < 1 | < 30 |
| Oc1cc(Cl)c(Cl)cc1N1CCNCC1 [Compound 5, 4,5-dichloro-2-(piperazin-1-yl)phenol] | < 10 | < 30 |
| O=S(=O)(NCC1CC(c2c(O)ccc(Cl)c2Cl)CCN1)c1cccnc1 [Compound 6, N-(2R,4S)-rel-[[4-(2,3-dichloro-6-hydroxyphenyl)piperidin-2-yl]methyl]pyridine-3-sulfonamide] | < 1 | > 30 |
| NC1CCN(c2cc(Cl)c(Cl)cc2O)CC1 [Compound 8, 2-(4-aminopiperidin-1-yl)-4,5-dichlorophenol] | < 1 | < 30 |
| Oc1cc(Cl)c(Cl)cc1C1=CCNCC1 [Compound 9, 4,5-dichloro-2-(1,2,3,6-tetrahydropyridin-4-yl)phenol] | < 1 | < 30 |
| Cc1cc(O)c(C2CCNCC2)cc1Cl [Compound 12, 4-chloro-5-methyl-2-(piperidin-4-yl)phenol] | < 10 | < 30 |
| Oc1cc(Cl)c(Cl)cc1C1CCCNC1 (stereo not shown) [Compound 16, 4,5-dichloro-2-(piperidin-3-yl)phenol] | < 1 | < 30 |
| Oc1ccc2ccccc2c1C1CCNCC1 [Compound 18, 1-(piperidin-4-yl)naphthalen-2-ol] | < 1 | < 30 |
| Oc1cc(Cl)c(Cl)cc1C1CCNC1 (stereo not shown) [Compound 21, 4,5-dichloro-2-(pyrrolidin-3-yl)phenol] | < 1 | < 30 |
| CN(C)C1CCN(c2cc(Cl)c(Cl)cc2O)CC1 [Compound 23, 4,5-dichloro-2-[4-(dimethylamino)piperidin-1-yl]phenol] | < 1 | < 30 |
| CNC1CCN(c2cc(Cl)c(Cl)cc2O)CC1 [Compound 24, 4,5-dichloro-2-[4-(methylamino)pip-eridin-1-yl]phenol] | < 1 | < 30 |
| CC1(N)CCN(c2cc(Cl)c(Cl)cc2O)CC1 [Compound 25, 2-(4-amino-4-methylpiperidin-l-yl)-4,5-dichlorophenol] | < 1 | < 30 |
| OCC1CC(c2cc(Cl)c(Cl)cc2O)CCN1 (stereo not shown) [Compound 27, 4,5-dichloro-2-[2-(hydroxymethyl)piperidin-4-yl]phenol] | < 10 | > 30 |
| NCC1CCN(c2cc(Cl)c(Cl)cc2O)CC1 [Compound 28, 2-[4-(aminomethyl)pip-eridin-1-yl]-4,5-dichlorophenol] | < 1 | < 30 |
| NCC1CN(c2cc(Cl)c(Cl)cc2O)C1 [Compound 31, 2-(3-(aminomethyl)aze-tidin-1-yl)-4,5-dichlorophenol] | < 1 | < 30 |
| Oc1cc(Cl)c(Cl)cc1C1CCCCNC1 (stereo not shown) [Compound 40, 2-(azepan-3-yl)-4,5-dichlorophenol] | < 10 | < 30 |
| Oc1cc(Cl)c(Cl)c(Cl)c1C1CCNCC1 [Compound 44, 3,4,5-trichloro-2-(piperidin-4-yl)phenol] | < 1 | < 30 |
| Oc1c(C2CCNCC2)cc(Cl)c(Cl)c1Cl [Compound 54, 2,3,4-trichloro-6-(piperidin-4-yl)phenol] | < 10 | < 30 |
| Oc1ccc(Cl)c(Cl)c1C1CCNCC1 [Compound 55, 3,4-dichloro-2-(piperidin-4-yl)phenol] | < 1 | < 30 |
| Oc1cc(Cl)cc(Cl)c1C1CCNCC1 [Compound 57, 3,5-dichloro-2-(piperidin-4-yl)phenol] | < 1 | < 30 |
